According to patent US8168860B2, “Compositions and methods for the modification of physiological responses in plants” (Rohm and Haas Company, priority 2007, dated 2012):
Values joined by “and” are separate entries in the source; they are usually repeats but may differ in a detail not shown here. Identical values can stand only once.

Assays:
[1] = system: transformed tobacco plants; assay: Triple response assay, shoot length of transformed tobacco shoots in dark with ethylene; type: in vivo; details: for Shoot Length Avg (cm) / Shoot Length (cm): induced, 10 μM inducer, ethylene about 10 ppm, 18 days; for Shoot Length (cm): single shoots
Experimental: A triple response assay as described in Guzman and Ecker 1990 The Plant Cell, 2:513-523, modified as provided herein, was conducted to determine the effect of the modulation of ethylene sensitivity in the transformed tobacco plants of Example 2. From each transformed plant designated 185-1, 184-3, 185-8, 185-11, 187-7, 187-13, 187-17 and 187-21, two leaves from each plant were cut into small pieces. These pieces were plated onto MSS plates containing […] kanamycin, with or without 10 μM inducer, i.e., 3,5 Dimethyl-benzoic acid N-(1-ethyl-2,2-dimethyl-propyl)-N′-(3S-hydroxymethyl-5-methyl-2,3-dihydro-benzo[1,4]dioxine-6-carbonyl)hydrazide. MSS plates without antibiotic or inducer were used as controls.
These plated plant tissues were grown at 25° C. with light in growth chambers to induce shoots. Shoots were transferred into fresh plates for about two weeks for continued growth at 25° C. Each callus was then transferred to new culture dishes with or without inducer. Each callus with shoots starting to initiate was split into several plates with approximately equal amounts of callus per plate.
The plates were then separated into groups for the following treatment protocols which lasted for 18 days
Shoot length was measured, and the relative assessment of the efficacy of the transgenic plants prepared according to the Examples based on raw data for shoot length is reported in Table I for conditions (a) through (d) above. Typically, wild-type shoots exposed to ethylene in the dark display stunted growth. Ethylene insensitive plants under these conditions should show elongated growth. […] Shoots grown in the light produced uninterpretable data.

[2] = system: transformed tomato plants; assay: Triple response assay, transformed tomato plants with ethylene; type: in vivo; details: transgenic tomato with etr1-1 cassettes, 20 μM inducer, dark, 4-8 days
Experimental: A triple response assay (Guzman and Ecker, 1990, cited above, modified as described below) was used to determine the modulation of ethylene sensitivity in the transformed tomato plants. Tomato seed was surface-sterilized and imbibed in 20 μM inducer in the dark for 4 days at 4° C. The seed was plated on 0.5× MS with 1% sucrose and 20 μM inducer and for mutant receptors treated with 10 ppm ethylene or 1 ppm ethylene for wild-type receptors and grown in the dark for 4-8 days at 21° C. The response to ethylene was scored on the last day.

[3] = system: ACC oxidase; assay: ACC oxidase expression in excised corn stalk sheath tissue, quantitative PCR; type: cell-based; details: for ACC Oxidase Expression (relative): normalized to 0 inducer/0 ACC; for AVG ACO Expression: average of corn lines
Experimental: Corn plants were transformed using the plasmids for Example 1 by microparticle bombardment. Putative transformants were selected using either actinonin or bialaphos and confirmed by PCR analysis. Positive transformants were backcrossed to inbred B73 to increase vigor. Transgenic corn plants produced as described above were tested for modulation of ethylene sensitivity. Modulation of ethylene sensitivity was determined at the molecular level by exposing plants to ethylene and measuring the change in induction of ethylene-induced genes.
Transgenic corn plants produced as described above were tested for modulation of ethylene sensitivity. Modulation of ethylene sensitivity was determined at the molecular level by exposing plants to ACC, the precursor of ethylene and measuring the change in induction of ethylene-induced genes. Stalk sheath tissue was excised from transgenic T0 corn plants growing in a green house and used in an in vitro bioassay. Excised tissue was treated with either water or 20 μM inducer for 2 days to induce expression of the ethylene insensitive etr1-1 transgene. Following the 2 day induction period, the tissue was treated for one day with 0, 1 or 10 μM ACC to produce ethylene and then harvested. Harvested tissue was immediately placed in RNAlater (Ambion). Total RNA was prepared from the tissue using MagMAX-96 Total RNA Isolation Kit (Ambion). Induction of an ethylene inducible gene (ACC oxidase) was measured using quantitative PCR on an Applied Biosystems 7900 HT Fast Real-Time PCR system (ABI). TaqMan Assay Kit (ABI) was used for reverse transcriptase (RT) and PCR using manufacturer recommended protocols. Corn 18s was used as an internal control to normalize expression for each sample.
Sequences for the primers and probes were as follows: […]
In order to determine gene expression, ACC oxidase expression in the 0 μM inducer plus 0 μM ACC control treatment was normalized for each respective corn line.

Q: What does the source list for `CCC(N(NC(=O)c1ccc2c(c1C)O[C@@H](CO)CO2)C(=O)c1cc(C)cc(C)c1)C(C)(C)C` (stereo partly drawn) [inducer, 3,5 Dimethyl-benzoic acid N-(1-ethyl-2,2-dimethyl-propyl)-N′-(3S-hydroxymethyl-5-methyl-2,3-dihydro-benzo[1,4]dioxine-6-carbonyl)hydrazide]?
A: Shoot Length Avg (cm) ([1]; tobacco plant 185-1 (VGE)): 2.8 cm; Shoot Length Avg (cm) ([1]; tobacco plant 185-8 (VGE)): 4.6 cm; Shoot Length (cm) ([1]; tobacco plant 185-8 (VGE)): 5.5 cm and 5.0 cm and 4.0 cm and 4.4 cm and 4.3 cm; Shoot Length Avg (cm) ([1]; tobacco plant 185-11 (VGE)): 4.0 cm; Shoot Length (cm) ([1]; tobacco plant 185-11 (VGE)): 4.0 cm and 4.5 cm and 3.0 cm; Shoot Length Avg (cm) ([1]; tobacco plant 187-7 (GVE)): 3.0 cm; Shoot Length (cm) ([1]; tobacco plant 187-7 (GVE)): 3.0 cm; Shoot Length Avg (cm) ([1]; tobacco plant 187-13 (GVE)): 3.9 cm; Shoot Length (cm) ([1]; tobacco plant 187-13 (GVE)): 4.0 cm and 3.5 cm and 5.0 cm and 3.0 cm; Shoot Length Avg (cm) ([1]; tobacco plant 187-17 (GVE)): 4.3 cm; Shoot Length (cm) ([1]; tobacco plant 187-17 (GVE)): 5.6 cm and 3.5 cm; Shoot Length Avg (cm) ([1]; tobacco plant 187-21 (GVE)): 3.4 cm; Shoot Length (cm) ([1]; tobacco plant 187-21 (GVE)): 4.0 cm and 3.5 cm and 3.0 cm and 2.5 cm; ethylene insensitivity, based on increased shoot length compared to non-induced transgenic plants ([1]; transgenic tobacco with etr1-1 cassettes, presence of inducer, ethylene): demonstrated ethylene insensitivity; ethylene insensitivity, based on increased shoot length and/or altered root growth compared to non-induced transgenic plants [2]: demonstrated ethylene insensitivity; ACC Oxidase Expression (relative) ([3]; Corn Line 4.5, 20 μM inducer/0 ACC): 1.351; ACC Oxidase Expression (relative) ([3]; Corn Line 4.5, 20 μM inducer/1 μM ACC): 1.081; ACC Oxidase Expression (relative) ([3]; Corn Line 4.5, 20 μM inducer/10 μM ACC): 0.4184; ACC Oxidase Expression (relative) ([3]; Corn Line 4.6, 20 μM inducer/0 ACC): 1.148; ACC Oxidase Expression (relative) ([3]; Corn Line 4.6, 20 μM inducer/1 μM ACC): 0.7581; ACC Oxidase Expression (relative) ([3]; Corn Line 4.6, 20 μM inducer/10 μM ACC): 0.3348; ACC Oxidase Expression (relative) ([3]; Corn Line 4.7, 20 μM inducer/0 ACC): 0.7452; ACC Oxidase Expression (relative) ([3]; Corn Line 4.7, 20 μM inducer/1 μM ACC): 1.388; ACC Oxidase Expression (relative) ([3]; Corn Line 4.7, 20 μM inducer/10 μM ACC): 0.2557; ACC Oxidase Expression (relative) ([3]; Corn Line 10.2, 20 μM inducer/0 ACC): 1.378; ACC Oxidase Expression (relative) ([3]; Corn Line 10.2, 20 μM inducer/1 μM ACC): 0.4928; ACC Oxidase Expression (relative) ([3]; Corn Line 10.2, 20 μM inducer/10 μM ACC): 0.6761; ACC Oxidase Expression (relative) ([3]; Corn Line 10.4, 20 μM inducer/0 ACC): 0.3437; ACC Oxidase Expression (relative) ([3]; Corn Line 10.4, 20 μM inducer/1 μM ACC): 0.3591; ACC Oxidase Expression (relative) ([3]; Corn Line 10.4, 20 μM inducer/10 μM ACC): 1.821; ACC Oxidase Expression (relative) ([3]; Corn Line 10.5, 20 μM inducer/0 ACC): 0.6804; ACC Oxidase Expression (relative) ([3]; Corn Line 10.5, 20 μM inducer/1 μM ACC): 0.06813; ACC Oxidase Expression (relative) ([3]; Corn Line 10.5, 20 μM inducer/10 μM ACC): 0.1983; ACC Oxidase Expression (relative) ([3]; Corn Line B73, 20 μM inducer/0 ACC): 1.964; ACC Oxidase Expression (relative) ([3]; Corn Line B73, 20 μM inducer/1 μM ACC): 0.09506; ACC Oxidase Expression (relative) ([3]; Corn Line B73, 20 μM inducer/10 μM ACC): 0.2589; AVG ACO Expression ([3]; 20 μM inducer/0 ACC): 1.087; AVG ACO Expression ([3]; 20 μM inducer/1 μM ACC): 0.6061; AVG ACO Expression ([3]; 20 μM inducer/10 μM ACC): 0.5662; average expression of ACC oxidase in the transgenic corn lines ([3]; presence of inducer plus ACC): repressed; ethylene insensitivity, based on decreased expression of ethylene inducible genes ([3]; transgenic corn with etr1-1 cassettes, presence of inducing compound, exposed to ethylene): demonstrated ethylene insensitivity
